Data on 25 molecules can be found in US9169252B2 (BRISTOL-MYERS SQUIBB COMPANY, priority 2014, dated 2015).

In test [1] the test system is TLR2 induced IL-6 in peripheral blood mononuclear cells (PBMCs). The test can be described thus: PBMC TLR2 Induced IL-6 Assay. It is filed as cell-based, human. The following applies: Homo sapiens, PBMC, PBMC TLR2 Induced IL-6 Assay, lipoteichoic acid stimulation, IL-6 by ELISA; for EC50: read-out: Cell EC50; for IC50: read-out: Cell IC50. Put shortly: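 Lipoteichoic acid at 10 µg/ml served as TLR2 stimulus for 5 hours, following a 30-minute compound pretreatment at 37° C. Cells were Ficoll-isolated human PBMCs, 250000 cells/well, cultured in RPMI plus 10% heat-inactivated FCS.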
In general terms: An ELISA detects its analyte on a solid surface through an enzyme-linked reagent.

The target of the next test is IRAK4 (Homo sapiens (Human), UniProt Q9NWZ3). The experiment in a line: IRAK4 Inhibition Assay. In kind it is biochemical. The note with it: IRAK4 Inhibition Assay; ATP 500 μM; read-out: IRAK4 IC50. Put shortly: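 Mobility-shift readout: fluorescent substrate and phosphoproduct resolved electrophoretically on Caliper LabChip 3000 after EDTA quench (35 mM). Enzyme reaction of IRAK4, substrates and test compound ran 60 min at room temperature.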
Sequence of IRAK4 (Q9NWZ3 whole entry, species assumed): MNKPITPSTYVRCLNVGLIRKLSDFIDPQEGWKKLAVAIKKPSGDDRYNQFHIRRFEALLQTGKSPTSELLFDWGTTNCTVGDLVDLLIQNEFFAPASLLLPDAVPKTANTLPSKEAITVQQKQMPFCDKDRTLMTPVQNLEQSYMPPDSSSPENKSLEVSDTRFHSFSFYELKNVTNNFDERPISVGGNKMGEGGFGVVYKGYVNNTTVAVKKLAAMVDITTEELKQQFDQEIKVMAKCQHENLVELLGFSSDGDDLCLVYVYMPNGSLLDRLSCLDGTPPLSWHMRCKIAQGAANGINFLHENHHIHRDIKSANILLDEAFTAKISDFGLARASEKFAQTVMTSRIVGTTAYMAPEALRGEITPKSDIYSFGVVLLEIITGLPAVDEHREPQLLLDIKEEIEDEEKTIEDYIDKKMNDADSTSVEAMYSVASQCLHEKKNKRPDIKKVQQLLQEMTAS

For orientation: EC50 means the concentration that produces a half-maximal response. The IC50 is the concentration needed to halve the response being measured. `CC(=O)N[C@H]1CC[C@H](NC(=O)c2cnc(-n3ncc4cc(C#N)cnc43)cc2NC(C)C)CC1` [Example 164, N-((trans)-4-acetamidocyclohexyl)-6-(5-cyano-1H-pyrazolo[3,4-b]pyridin-1-yl)-4-(isopropylamino) nicotinamide]: in test [1], the half-maximal effective concentration (EC50) was determined as 0.299 µM. At IRAK4, the IC50 was 0.0035 µM.

On to `CC(C)Nc1cc(-n2ncc3cc(C#N)cnc32)ncc1C(=O)NC1CCc2nc(N)sc2C1` (stereo not drawn) [Example 165, N-(2-amino-4,5,6,7-tetrahydrobenzo[d]thiazol-6-yl)-6-(5-cyano-1H-pyrazolo[3,4-b]pyridin-1-yl)-4-(isopropylamino)nicotinamide], for which the EC50 in test [1] came out at 0.172 µM. In addition, on IRAK4, the half-inhibitory concentration (IC50) is 0.0091 µM.

With `CC(C)Nc1cc(-n2ncc3cc(C#N)cnc32)ncc1C(=O)N[C@H]1CC[C@H](NS(C)(=O)=O)CC1` [Example 166, 6-(5-cyano-1H-pyrazolo[3,4-b]pyridin-1-yl)-4-(isopropylamino)-N-((trans)-4-(methylsulfonamido)cyclohexyl)nicotinamide], the EC50 in test [1] was 0.192 µM. The 50% inhibitory concentration (IC50) at IRAK4 amounted to 0.0046 µM.

In the case of `CC(C)Nc1cc(-n2ncc3cc(C#N)cnc32)ncc1C(=O)NCC(F)(F)C(C)(C)O` [Example 167, 6-(5-Cyano-1H-pyrazolo[3,4-b]pyridin-1-yl)-N-(2,2-difluoro-3-hydroxy-3-methylbutyl)-4-(isopropylamino)nicotinamide], in test [1], the EC50 turned out to be 0.171 µM. The concentration for half-maximal inhibition (IC50) on IRAK4 was determined as 0.0105 µM.

Turning to `CC(C)Nc1cc(-n2ccc(-c3ccnnc3)n2)ncc1C(=O)NC[C@@H](F)C(C)(C)O` [Example 168, (R)—N-(2-Fluoro-3-hydroxy-3-methylbutyl)-4-(isopropylamino)-6-(3-(pyridazin-4-yl)-1H-pyrazol-1-yl)nicotinamide], in test [1], the EC50 came to 0.305 µM. On IRAK4, the IC50 amounted to 0.0131 µM.

With `CC(C)(O)[C@H](F)CNC(=O)c1cnc(-n2ncc3cc(C#N)cnc32)cc1NCC(F)(F)C(C)(C)O` [Example 169, (R)-6-(5-Cyano-1H-pyrazolo[3,4-b]pyridin-1-yl)-4-((2,2-difluoro-3-hydroxy-3-methylbutyl)amino)-N-(2-fluoro-3-hydroxy-3-methylbutyl)nicotinamide], the EC50 in test [1] turned out to be 0.204 µM. Also, the concentration for half-maximal inhibition (IC50) on IRAK4 is 0.0033 µM.

With `CC(C)Nc1cc(-n2cnc3cnc(N)nc32)ncc1C(=O)NC[C@@H](F)C(C)(C)O` [Example 171, (R)-6-(2-Amino-9H-purin-9-yl)-N-(2-fluoro-3-hydroxy-3-methylbutyl)-4-(isopropylamino)nicotinamide], in test [1], the EC50 was determined as 0.208 µM and the 50% inhibitory concentration (IC50) is 0.587 µM. Also, the half-maximal inhibitory concentration (IC50) at IRAK4 amounted to 0.0037 µM.

Consider `CC(C)Nc1cc(-n2cnc3cnc(NCCO)nc32)ncc1C(=O)NC[C@@H](F)C(C)(C)O` [Example 172, (R)—N-(2-Fluoro-3-hydroxy-3-methylbutyl)-6-(2-((2-hydroxyethyl)amino)-9H-purin-9-yl)-4-(isopropylamino)nicotinamide], for which the IC50 in test [1] amounted to 10 µM; on IRAK4 it was 0.0025 µM.

For `CC(C)Nc1cc(-n2ccc3cc(C#N)cnc32)ncc1C(=O)N[C@H]1CC[C@](F)(c2ccnn2C)CC1` [Example 174, 6-(5-Cyano-1H-pyrrolo[2,3-b]pyridin-1-yl)-N-((1s,4s)-4-fluoro-4-(1-methyl-1H-pyrazol-5-yl)cyclohexyl)-4-(isopropylamino)nicotinamide], in test [1], the concentration giving a half-maximal response (EC50) came to 0.182 µM. For the same molecule, the half-inhibitory concentration (IC50) on IRAK4 came to 0.0033 µM.

As to `CC(C)Nc1cc(-n2ccc3cc(C#N)cnc32)ncc1C(=O)N[C@H]1CC[C@](O)(c2nccs2)CC1` [Example 175, 6-(5-cyano-1H-pyrrolo[2,3-b]pyridin-1-yl)-N-((1s,4s)-4-hydroxy-4-(thiazol-2-yl)cyclohexyl)-4-(isopropylamino)nicotinamide], in test [1], the EC50 turned out to be 0.113 µM. Further, at IRAK4, the half-inhibitory concentration (IC50) was 0.005 µM.

With `CC(C)Nc1cc(-n2ccc3cc(C#N)cnc32)ncc1C(=O)N[C@H]1CC[C@](O)(c2nccn2C)CC1` [Example 176, 6-(5-cyano-1H-pyrrolo[2,3-b]pyridin-1-yl)-N-((1 s,4s)-4-hydroxy-4-(1-methyl-1H-imidazol-2-yl)cyclohexyl)-4-(isopropylamino) nicotinamide], the half-maximal effective concentration (EC50) in test [1] came to 0.476 µM. In addition, the concentration for half-maximal inhibition (IC50) at IRAK4 worked out at 0.0064 µM.

`CC(C)Nc1cc(-n2ccc3cc(C#N)cnc32)ncc1C(=O)N[C@H]1CC[C@](O)(c2cccnc2)CC1` [Example 177, 6-(5-cyano-1H-pyrrolo[2,3-b]pyridin-1-yl)-N-((1s,4s)-4-hydroxy-4-(pyridin-3-yl)cyclohexyl)-4-(isopropylamino)nicotinamide]: in test [1], the concentration giving a half-maximal response (EC50) is 0.352 µM. For the same molecule, the IC50 on IRAK4 is 0.0036 µM.

For the molecule `CC(C)Nc1cc(-n2ccc3cc(C#N)cnc32)ncc1C(=O)N[C@H]1CC[C@](O)(c2ccccn2)CC1` [Example 178, 6-(5-cyano-1H-pyrrolo[2,3-b]pyridin-1-yl)-N-((1s,4s)-4-hydroxy-4-(pyridin-2-yl)cyclohexyl)-4-(isopropylamino)nicotinamide], the EC50 in test [1] was determined as 0.1 µM. In addition, the concentration for half-maximal inhibition (IC50) at IRAK4 stood at 0.0037 µM.

`CC(C)Nc1cc(-n2ccc3cc(C#N)cnc32)ncc1C(=O)N[C@H]1CC[C@](O)(c2ccncc2)CC1` [Example 179, 6-(5-cyano-1H-pyrrolo[2,3-b]pyridin-1-yl)-N-((1 s,4s)-4-hydroxy-4-(pyridin-4-yl)cyclohexyl)-4-(isopropylamino)nicotinamide]: in test [1], the 50% effective concentration (EC50) is 0.135 µM. The half-maximal inhibitory concentration (IC50) on IRAK4 worked out at 0.0028 µM.

Regarding `CC(C)Nc1cc(-n2ccc3cc(C#N)cnc32)ncc1C(=O)N[C@H]1CC[C@](F)(c2nccs2)CC1` [Example 180, 6-(5-cyano-1H-pyrrolo[2,3-b]pyridin-1-yl)-N-((1s,4s)-4-fluoro-4-(thiazol-2-yl)cyclohexyl)-4-(isopropylamino)nicotinamide], the EC50 in test [1] was 0.208 µM. The IC50 on IRAK4 came to 0.0053 µM.

In the case of `CC(C)Nc1cc(-n2ccc3cc(C#N)cnc32)ncc1C(=O)N[C@H]1CC[C@](F)(c2nccn2C)CC1` [Example 181, 6-(5-cyano-1H-pyrrolo[2,3-b]pyridin-1-yl)-N-((1 s,4s)-4-fluoro-4-(1-methyl-1H-imidazol-2-yl)cyclohexyl)-4-(isopropylamino) nicotinamide], the EC50 in test [1] was 0.152 µM. Also, the IC50 at IRAK4 came out at 0.0043 µM.

In the case of `CC(C)Nc1cc(-n2ccc3cc(C#N)cnc32)ncc1C(=O)N[C@H]1CC[C@@](F)(c2nccn2C)CC1` [Example 182, 6-(5-cyano-1H-pyrrolo[2,3-b]pyridin-1-yl)-N-((trans)-4-fluoro-4-(1-methyl-1H-imidazol-2-yl)cyclohexyl)-4-(isopropylamino)nicotinamide], in test [1], the concentration for a half-maximal effect (EC50) worked out at 0.074 µM. For the same molecule, the half-inhibitory concentration (IC50) at IRAK4 is 0.0018 µM.

For the molecule `CC(C)Nc1cc(-n2ccc3cc(C#N)cnc32)ncc1C(=O)NC1CCC2(CC1)NC(=O)NC2=O` (stereo not drawn) [Example 183, 6-(5-Cyano-1H-pyrrolo[2,3-b]pyridin-1-yl)-N-(2,4-dioxo-1,3-diazaspiro[4.5]decan-8-yl)-4-(isopropylamino)nicotinamide], the EC50 in test [1] worked out at 0.179 µM. Moreover, the concentration for half-maximal inhibition (IC50) on IRAK4 was found to be 0.0041 µM.

For `CC(C)Nc1cc(-n2ccc3cc(C#N)cnc32)ncc1C(=O)N[C@@H]1CC=C(c2ccncc2)CC1` [Example 184, (S)-6-(5-Cyano-1H-pyrrolo[2,3-b]pyridin-1-yl)-4-(isopropylamino)-N-(4-(pyridin-4-yl)cyclohex-3-en-1-yl)nicotinamide], the concentration for a half-maximal effect (EC50) in test [1] worked out at 0.436 µM. For the same molecule, the IC50 at IRAK4 is 0.0055 µM.

In the case of `CC(C)Nc1cc(-n2ccc3cnc(N(C)C)nc32)ncc1C(=O)NC[C@@H](F)C(C)(C)O` [Example 185, (R)-6-(2-(Dimethylamino)-7H-pyrrolo[2,3-d]pyrimidin-7-yl)-N-(2-fluoro-3-hydroxy-3-methylbutyl)-4-(isopropylamino)nicotinamide], the EC50 in test [1] worked out at 0.35 µM. Also, the IC50 on IRAK4 was determined as 0.0034 µM.

As to `CC(C)Nc1cc(-n2ccc3cnc(N)nc32)ncc1C(=O)NC[C@@H](F)C(C)(C)O` [Example 186, (R)-6-(2-Amino-7H-pyrrolo[2,3-d]pyrimidin-7-yl)-N-(2-fluoro-3-hydroxy-3-methylbutyl)-4-(isopropylamino)nicotinamide], the EC50 in test [1] came to 0.044 µM. Also, on IRAK4, the IC50 amounted to 0.0013 µM.

With `CC(C)Nc1cc(-n2ccc3cnc(NCC(C)(C)O)nc32)ncc1C(=O)NC[C@@H](F)C(C)(C)O` [Example 187, (R)—N-(2-Fluoro-3-hydroxy-3-methylbutyl)-6-(2-((2-hydroxy-2-methylpropyl)amino)-7H-pyrrolo[2,3-d]pyrimidin-7-yl)-4-(isopropylamino)nicotinamide], the EC50 in test [1] came out at 0.086 µM. Also, the IC50 at IRAK4 came to 0.0019 µM.

Consider `CC(C)Nc1cc(-n2ccc3cnc(NCCO)nc32)ncc1C(=O)NC[C@@H](F)C(C)(C)O` [Example 188, (R)—N-(2-fluoro-3-hydroxy-3-methylbutyl)-6-(2-((2-hydroxyethyl)amino)-7H-pyrrolo[2,3-d]pyrimidin-7-yl)-4-(isopropylamino)nicotinamide], for which the EC50 in test [1] amounted to 0.057 µM. The IC50 at IRAK4 came out at 0.0017 µM.

Turning to `CC(C)Nc1cc(-n2ccc3cnc(N4CC[C@H](O)C4)nc32)ncc1C(=O)NC[C@@H](F)C(C)(C)O` [Example 189, N—((R)-2-fluoro-3-hydroxy-3-methylbutyl)-6-(2-((S)-3-hydroxypyrrolidin-1-yl)-7H-pyrrolo[2,3-d]pyrimidin-7-yl)-4-(isopropylamino)nicotinamide], the EC50 in test [1] stood at 0.075 µM. At IRAK4, the IC50 came out at 0.0048 µM.

Take `CC(C)Nc1cc(-n2ccc3cnc(N4CC[C@@H](O)C4)nc32)ncc1C(=O)NC[C@@H](F)C(C)(C)O` [Example 190, N—((R)-2-fluoro-3-hydroxy-3-methylbutyl)-6-(2-((R)-3-hydroxypyrrolidin-1-yl)-7H-pyrrolo[2,3-d]pyrimidin-7-yl)-4-(isopropylamino)nicotinamide]: the EC50 in test [1] was found to be 0.12 µM. Further, the 50% inhibitory concentration (IC50) at IRAK4 turned out to be 0.0047 µM.
